A word on the IC50: it is the midpoint of a concentration-inhibition curve.

Experimental findings from patent US20250213555A1, “SUBSTITUTED TETRAHYDROFURAN ANALOGS AS MODULATORS OF SODIUM CHANNELS” (VERTEX PHARMACEUTICALS INCORPORATED, priority 2021, published 2025) are described below.

The target of the experiment is human Nav 1.8 (Homo sapiens, UniProt Q9Y5Y9). As to the kind of experiment: E-VIPR assay detecting and measuring Nav inhibition properties. The experiment is classed as cell-based. The conditions noted are these: HEK cells expressing a truncated form of human Nav 1.8; compound numbers without "*" (not marked as run in the presence of human serum); read-out: measured IC50 value in the E-VIPR Assay. In short, it runs like this: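 Nav inhibition was read by E-VIPR: cells were electrically stimulated while coumarin/oxonol FRET emissions were recorded. Cells were HEK expressing a truncated human Nav 1.8 and co-transduced with KIR2.1, and were assayed in 25% final human serum.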
human Nav 1.8, sequence (Q9Y5Y9 126-399 limits assumed): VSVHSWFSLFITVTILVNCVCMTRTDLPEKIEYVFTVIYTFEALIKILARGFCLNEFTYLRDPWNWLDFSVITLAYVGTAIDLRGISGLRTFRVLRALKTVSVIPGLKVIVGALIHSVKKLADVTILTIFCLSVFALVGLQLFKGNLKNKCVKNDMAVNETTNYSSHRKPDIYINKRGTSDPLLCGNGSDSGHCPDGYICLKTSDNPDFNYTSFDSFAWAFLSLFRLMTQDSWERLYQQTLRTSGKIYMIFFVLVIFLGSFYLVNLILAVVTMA
human Nav 1.8, sequence (Q9Y5Y9 660-890 limits assumed): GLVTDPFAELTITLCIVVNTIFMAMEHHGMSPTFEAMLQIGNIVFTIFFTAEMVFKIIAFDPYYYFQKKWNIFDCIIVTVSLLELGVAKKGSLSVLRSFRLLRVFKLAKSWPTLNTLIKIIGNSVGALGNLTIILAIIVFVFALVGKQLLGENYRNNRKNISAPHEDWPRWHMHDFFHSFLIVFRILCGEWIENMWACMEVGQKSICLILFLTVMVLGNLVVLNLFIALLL
human Nav 1.8, sequence (Q9Y5Y9 1148-1722 limits assumed): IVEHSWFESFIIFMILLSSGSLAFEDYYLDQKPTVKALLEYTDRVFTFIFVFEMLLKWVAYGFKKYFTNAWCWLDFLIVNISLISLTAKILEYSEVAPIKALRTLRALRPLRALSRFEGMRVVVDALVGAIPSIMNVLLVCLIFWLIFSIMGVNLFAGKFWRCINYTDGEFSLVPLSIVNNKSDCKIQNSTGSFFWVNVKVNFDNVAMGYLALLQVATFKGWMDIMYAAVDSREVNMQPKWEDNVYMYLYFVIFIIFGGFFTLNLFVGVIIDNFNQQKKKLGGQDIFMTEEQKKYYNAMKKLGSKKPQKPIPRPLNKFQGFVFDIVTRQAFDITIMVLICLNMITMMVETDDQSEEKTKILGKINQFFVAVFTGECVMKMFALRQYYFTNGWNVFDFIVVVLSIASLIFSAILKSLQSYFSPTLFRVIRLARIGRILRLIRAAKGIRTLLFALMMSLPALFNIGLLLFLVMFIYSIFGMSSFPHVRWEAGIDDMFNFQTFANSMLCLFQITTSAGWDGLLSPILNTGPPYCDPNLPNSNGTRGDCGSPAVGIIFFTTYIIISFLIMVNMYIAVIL
Turning to `COc1c([C@H]2[C@H](C(=O)Nc3ccnc(C(=O)N4CCO[C@H]5CN(C)C[C@H]54)c3)O[C@@](C)(C(F)(F)F)[C@H]2C)ccc(F)c1F` [Compound 282, (2R,3S,4S,5R)-3-(3,4-difluoro-2-methoxyphenyl)-4,5-dimethyl-N-(2-((4aR,7aS)-6-methyloctahydropyrrolo[3,4-b][1,4]oxazine-4-carbonyl)pyridin-4-yl)-5-(trifluoromethyl)tetrahydrofuran-2-carboxamide], the IC50 was less than 10 nM.

Regarding `C[C@H]1[C@@H](c2ccc(F)c(F)c2OCCN2CCCOCC2)[C@H](C(=O)Nc2ccnc(C(N)=O)c2)O[C@@]1(C)C(F)(F)F` [Compound 108, 4-((2R,3S,4S,5R)-3-(2-(2-(1,4-oxazepan-4-yl)ethoxy)-3,4-difluorophenyl)-4,5-dimethyl-5-(trifluoromethyl)tetrahydrofuran-2-carboxamido)picolinamide], the IC50 lay within 10 to 100 nM.

On to `C[C@H]1[C@@H](c2ccc(F)c(F)c2OCc2cn[nH]c2)[C@H](C(=O)Nc2ccnc(C(N)=O)c2)O[C@@]1(C)C(F)(F)F` [Compound 168, 4-((2R,3S,4S,5R)-3-(2-((1H-pyrazol-4-yl)methoxy)-3,4-difluorophenyl)-4,5-dimethyl-5-(trifluoromethyl)tetrahydrofuran-2-carboxamido)picolinamide], for which the IC50 was less than 10 nM.

`C[C@H]1[C@@H](c2ccc(F)c(F)c2OC2CC(C)(O)C2)[C@H](C(=O)Nc2ccnc(C(N)=O)c2)O[C@@]1(C)C(F)(F)F` (stereo partly drawn) [Compound 174, 4-((2R,3S,4S,5R)-3-(3,4-difluoro-2-(3-hydroxy-3-methylcyclobutoxy)phenyl)-4,5-dimethyl-5-(trifluoromethyl)tetrahydrofuran-2-carboxamido)picolinamide]: the IC50 is less than 10 nM.

Regarding `COc1c([C@H]2[C@H](C(=O)Nc3ccnc(C(=O)N4CC5(CCCN5)C4)c3)O[C@@](C)(C(F)(F)F)[C@H]2C)ccc(F)c1F` [Compound 230, (2R,3S,4S,5R)-N-(2-(2,5-diazaspiro[3.4]octane-2-carbonyl)pyridin-4-yl)-3-(3,4-difluoro-2-methoxyphenyl)-4,5-dimethyl-5-(trifluoromethyl)tetrahydrofuran-2-carboxamide], the IC50 is less than 10 nM.

Turning to `COc1c([C@H]2[C@H](C(=O)Nc3ccnc(C(N)=O)c3)O[C@@](C)(C(F)(F)F)[C@H]2C)ccc(OCC2CC2)c1F` (single isomer, unassigned) [Compound 144], the IC50 is less than 10 nM.

On to `C[C@H]1[C@@H](c2ccc(F)c(F)c2OCCN2CCOC3CC32)[C@H](C(=O)Nc2ccnc(C(N)=O)c2)O[C@@]1(C)C(F)(F)F` (stereo partly drawn) [Compound 50, 4-((2R,3S,4S,5R)-3-(2-(2-(2-oxa-5-azabicyclo[4.1.0]heptan-5-yl)ethoxy)-3,4-difluorophenyl)-4,5-dimethyl-5-(trifluoromethyl)tetrahydrofuran-2-carboxamido)picolinamide], for which the IC50 was less than 10 nM.

Regarding `CC1CN(CCOc2c([C@H]3[C@H](C(=O)Nc4ccnc(C(N)=O)c4)O[C@@](C)(C(F)(F)F)[C@H]3C)ccc(F)c2F)CCO1` (stereo partly drawn) [Compound 51, 4-((2R,3S,4S,5R)-3-(3,4-difluoro-2-(2-(2-methylmorpholino)ethoxy)phenyl)-4,5-dimethyl-5-(trifluoromethyl)tetrahydrofuran-2-carboxamido)picolinamide], the IC50 was less than 10 nM.

Consider `COCCOc1c([C@@H]2[C@@H](C(=O)Nc3ccnc(C(N)=O)n3)O[C@](C)(C(F)(F)F)[C@@H]2C)ccc(F)c1C` (single isomer, unassigned) [Compound 4], for which the IC50 was no less than 1000 nM.

As for `COc1c([C@H]2[C@H](C(=O)Nc3cc(C(=O)N4CCNCC4)ccn3)O[C@@](C)(C(F)(F)F)[C@H]2C)ccc(F)c1F` [Compound 18, (2R,3S,4S,5R)-3-(3,4-difluoro-2-methoxyphenyl)-4,5-dimethyl-N-(4-(piperazine-1-carbonyl)pyridin-2-yl)-5-(trifluoromethyl)tetrahydrofuran-2-carboxamide], the IC50 was 10 to 100 nM.

Turning to `C[C@H]1[C@@H](c2ccc(F)c(F)c2OCC2(CO)COC2)[C@H](C(=O)Nc2ccnc(C(N)=O)c2)O[C@@]1(C)C(F)(F)F` [Compound 94, 4-((2R,3S,4S,5R)-3-(3,4-difluoro-2-((3-(hydroxymethyl)oxetan-3-yl)methoxy)phenyl)-4,5-dimethyl-5-(trifluoromethyl)tetrahydrofuran-2-carboxamido)picolinamide], the IC50 was in the range of 100 to 1000 nM.

Turning to `C[C@H]1[C@@H](c2ccc(F)c(F)c2OCc2cn(C)cn2)[C@H](C(=O)Nc2ccnc(C(N)=O)c2)O[C@@]1(C)C(F)(F)F` [Compound 88, 4-((2R,3S,4S,5R)-3-(3,4-difluoro-2-((1-methyl-1H-imidazol-4-yl)methoxy)phenyl)-4,5-dimethyl-5-(trifluoromethyl)tetrahydrofuran-2-carboxamido)picolinamide], the IC50 is less than 10 nM.

In the case of `C[C@@H](CO)COc1c([C@H]2[C@H](C(=O)Nc3ccnc(C(N)=O)c3)O[C@@](C)(C(F)(F)F)[C@H]2C)ccc(F)c1F` [Compound 81, 4-((2R,3S,4S,5R)-3-(3,4-difluoro-2-((S)-3-hydroxy-2-methylpropoxy)phenyl)-4,5-dimethyl-5-(trifluoromethyl)tetrahydrofuran-2-carboxamido)picolinamide], the IC50 was less than 10 nM.

With `COc1c([C@H]2[C@H](C(=O)Nc3ccnc(C(=O)N(C)[C@H]4CN(C)C[C@@H]4OC)c3)O[C@@](C)(C(F)(F)F)[C@H]2C)ccc(F)c1F` [Compound 286, 4-((2R,3S,4S,5R)-3-(3,4-difluoro-2-methoxyphenyl)-4,5-dimethyl-5-(trifluoromethyl)tetrahydrofuran-2-carboxamido)-N-((3S,4S)-4-methoxy-1-methylpyrrolidin-3-yl)-N-methylpicolinamide], the IC50 was less than 10 nM.

As for `COc1c([C@H]2[C@H](C(=O)Nc3ccnc(C(=O)N4CCN(C)CC4)n3)O[C@@](C)(C(F)(F)F)[C@H]2C)ccc(F)c1F` [Compound 11, (2R,3S,4S,5R)-3-(3,4-difluoro-2-methoxyphenyl)-4,5-dimethyl-N-(2-(4-methylpiperazine-1-carbonyl)pyrimidin-4-yl)-5-(trifluoromethyl)tetrahydrofuran-2-carboxamide], the IC50 was 10 to 100 nM.

Turning to `C[C@H]1[C@@H](c2ccc(F)c(F)c2OC2CC(O)C2)[C@H](C(=O)Nc2ccnc(C(N)=O)c2)O[C@@]1(C)C(F)(F)F` (stereo partly drawn) [Compound 163, 4-((2R,3S,4S,5R)-3-(3,4-difluoro-2-(3-hydroxycyclobutoxy)phenyl)-4,5-dimethyl-5-(trifluoromethyl)tetrahydrofuran-2-carboxamido)picolinamide], the IC50 was less than 10 nM.

In the case of `C[C@H]1[C@@H](c2ccc(F)c(F)c2OC2COC2)[C@H](C(=O)Nc2ccnc(C(N)=O)c2)O[C@@]1(C)C(F)(F)F` [Compound 58, 4-((2R,3S,4S,5R)-3-(3,4-difluoro-2-(oxetan-3-yloxy)phenyl)-4,5-dimethyl-5-(trifluoromethyl)tetrahydrofuran-2-carboxamido) picolinamide], the IC50 was less than 10 nM.

As for `COc1c([C@H]2[C@H](C(=O)Nc3ccnc(C(=O)N4C[C@H](N)[C@H](OC)C4)c3)O[C@@](C)(C(F)(F)F)[C@H]2C)ccc(F)c1F` [Compound 257, (2R,3S,4S,5R)-N-(2-((3S,4R)-3-amino-4-methoxypyrrolidine-1-carbonyl)pyridin-4-yl)-3-(3,4-difluoro-2-methoxyphenyl)-4,5-dimethyl-5-(trifluoromethyl)tetrahydrofuran-2-carboxamide], the IC50 was less than 10 nM.
